Assay results reported in BindingDB's records for doi:10.1016/j.bioorg.2017.01.006 (Jaipur National University, 2017).

Target: Gag-Pol polyprotein (Human immunodeficiency virus type 1 group M subtype B (isolate HXB2), UniProt P04585)
Assay: RT Assay
Conditions: 37 °C
Protocol: To a lysis buffer (20 μl), 4-6 ng recombinant HIV-1-RT was added in separate reaction tubes. Lysis buffer without HIV-1-RT was used as a negative control. Standards and test compound RT inhibitor (10 μg) were diluted with lysis buffer. This mixture was incubated for 1 h at 37 °C. For the number of micro plate modules to be used, enough foil bags were opened and micro plate modules were put into the frame in the correct orientation. The above samples were transferred to wells of microplate module. After addition it was covered with cover foil and incubated at 37 °C for 1 h. Solution was removed and rinsed five times with 250 μl of washing buffer per well for 30 s to each well. Then washing buffer was removed carefully. 200 μl of anti-DIG-POD working dilution was added to individual well and covered with cover foil and incubated at 37 °C for 1 h. Anti-DIG-POD working dilution solution was completely removed. Microplate module were washed five times for 30 s with washing buffer 250 μl and removed. 200 μl of ABTS substrate solution was added to individual well and incubated between 15 °C and 25 °C till (15−30 min) green color was obtained.

IC50 [nM]	Compound
64	CC1=C(C(=O)NC(=O)CN2C(=O)C(=O)c3ccccc32)C(C)NC(=O)N1 (stereo not given) [N-(2-(2,3-Dioxoindolin-1-yl)acetyl)-4,6-dimethyl-2-oxo-1,2,3,4-tetrahydropyrimidine-5-carboxamide (9c)]
67	CCC1NC(=O)NC(C)=C1C(=O)NC(=O)CN1C(=O)C(=O)c2ccccc21 (stereo not given) [N-(2-(2,3-Dioxoindolin-1-yl)acetyl)-4-ethyl-6-methyl-2-oxo-1,2,3,4-tetrahydropyrimidine-5-carboxamide (9d)]
> 100	CCCC1NC(=O)NC(C)=C1C(=O)NC(=O)CN1C(=O)C(=O)c2ccccc21 (stereo not given) [N-(2-(2,3-Dioxoindolin-1-yl)acetyl)-6-methyl-2-oxo-4-propyl-1,2,3,4-tetrahydropyrimidine-5-carboxamide (9e)]
> 100	CC1=C(C(=O)NC(=O)CN2C(=O)C(=O)c3ccccc32)C(c2ccc(Cl)cc2)NC(=O)N1 (stereo not given) [4-(4-Chlorophenyl)-N-(2-(2,3-dioxoindolin-1-yl)acetyl)-6-methyl-2-oxo-1,2,3,4-tetrahydro pyrimidine-5-carboxamide (9h)]
68	Cc1cc(/C=C/C#N)cc(C)c1Nc1ccnc(Nc2ccc(C#N)cc2)n1 [Rilpivirine]
